pIC50: −log10 of the molar value.
Tested on: human neutrophils
Assay: TNF-triggered H2O2 release (respiratory burst) by adherent human neutrophils
Assay type: cell-based
Protocol: Contaminating erythrocytes were lysed by hypotonic shock for 45 seconds with 0.2% saline.
Briefly, 15,000 compounds were screened to identify specific inhibitors of TNF-triggered H2O2 release in human neutrophils. H2O2 release was measured as above except a few modifications to adapt to high throughput screening. […] Percent inhibition by each compound was calculated using the formula: […]
Briefly, 96-well flat-bottomed plates (Primaria, Falcon) were coated with 50 μl/well of FBS in 5% CO2 at 37° C. for at least 1 h and washed three times with 0.9% saline. Neutrophils (1.5×10^4) were added to triplicate wells containing 100 μl of reaction mixture (2.4 nm scopoletin, 0.5 μg horseradish peroxidase (HRP), and 1 mM NaN3) and stimulated with either buffer control, TNF (PreproTech, London, UK) or phorbol myristate acetate (PMA), each at 100 ng/ml. […] The supernatant from the H2O2 release assay with 1.5×10^4 neutrophils was used to measure degranulation using lactoferrin (LF) or myeloperoxidase (MPO) ELISA kit (Oxis International, Inc., Portland, Oreg.). Spontaneous cell death from the same supernatant was measured using Cytotoxicity Detection Kit (Roche Molecular Biochemicals, Nutley, N.J.). The total cell content of LF, MPO, and lactate dehydrogenase (LDH) was determined after lysing cells with 1% Triton X100. LDH is a cytosolic enzyme whose release indicates cell lysis, such that high release of LF or MPO in the face of low release of LDH is taken as a measure of degranulation.

SMILES: CC1=NN(c2ccccc2)C(=O)/C1=C\Nc1cccc2ccc(C)nc12 [Comp II′]
- pIC50 (Homo sapiens, Neutrophil, 1.5 h, TNF 100 ng/ml, H2O2 release at 90 min, read-out: IC50, TNF triggered H2O2 release): 7.66
- Concentration that consistently yielded over 95% inhibition on TNF triggered RB (empirically decided for each compound): 1 µM

— patent US7977366B2, “Treating an inflammatory disorder or inhibiting respiratory burst in adherent neutrophils with chemical inhibitors of neutrophil activation” (Cornell Research Foundation, Inc., priority 2003, dated 2011)
